Measured values reported in patent US20090098222A1, “Accelerating Agent of Calcium Absorption” (priority 2006, published 2009).

Experiments:
[1] = tested on: rats fed a calcium-deficient diet; assay: Effects on urinary excretion of calcium (metabolic cage); format: in vivo, rat; conditions: total for three days, 40 mL of water containing the substance, FIG. 2
Experimental: (§1) […]. Male Wistar rats weighing 200-250 g, and about 120 g especially in the experiment of studying calcium born absorption (Test Example 3), were used as an experimental animal.
Usually, calcium concentrations in blood are constantly maintained by biogenic homeostasis and it is difficult to utilize it as an index of calcium absorption. Accordingly, the urinary excretion of calcium was assayed in place of it.
Rats were kept in a metabolic cage and 40 mL of water containing calcium (Ca), Gum Arabic (GA), or Ca and GA (Ca+GA) was given for three days. […]. After recovering urine, urinary concentration of calcium and urine volume were measured.

[2] = tested on: rats fed a calcium-deficient diet; assay: Effects on bone absorption of calcium (30-day oral administration); format: in vivo, rat; conditions: 30 days, 1 mg (Ca)/day, GA coadministered with Ca, compared with the Ca-treated group, FIG. 6
From the text: as §1
Next, it was studied whether the accelerating effect of GA on calcium absorption reaches bone absorption, and prevents the decease of calcium content in the bone, using rats fed a calcium-deficient diet.
Calcium (Ca-treated group), or calcium and GA ([Ca+GA]-treated group) were orally administered to rats for 30 days with an amount of 1 mg (ca)/day, and changes of hardness and mineral (Ca, Mg, P, Zn) content of the femur, or ALP in blood were observed. Rats were fed a calcium-deficient diet in order to eliminate an effect of calcium contained in the normal diet.

## C[C@H](O)C(=O)[O-].C[C@H](O)C(=O)[O-].[Ca+2] [Ca, calcium L-lactate]
[1]
  urinary excretion of calcium: not increased
[2]
  ALP in blood: elevation of ALP in blood was observed
